Source: patent US20030221207A1, “Cardiac-specific 11beta hydroxysteroid dehydrogenase type 2 transgenic mice” (Pharmacia Corporation, Global Patent Department, priority 2002, published 2003)

Test system: 11βhsd2 cardiac-specific transgenic mice
Assay: Eplerenone treatment of 11βhsd2 cardiac-specific transgenic mice, echocardiography
Assay type: in vivo, mouse
Conditions: male transgenic mice, chow containing eplerenone approx. 200 mg/kg/day from 4 weeks of age
Protocol: Starting at 4 weeks of age male transgenic mice were supplied with either chow containing eplerenone (approximate dose of 200 mg/kg/day) to eat or normal chow.
Echocardiograms were acquired using a Sonos 5500 echocardiographic system equipped with a 15-MHz linear-array transducer (Agilent, Andover, Mass.). Images were obtained from mice lightly anesthetized with 1-2% isoflurane (AErrane; Baxter, Inc., Deerfield, Ill.) lying in the left lateral decubitus position. Care was taken to maintain adequate contact while avoiding excessive pressure on the chest wall. Two-dimensional parasternal long and short-axis images of the left ventricle were obtained. Two-dimensional targeted M-mode tracings were recorded from the parasternal short-axis view at the level of the papillary muscles at a sweep speed of 150 mm/s. All echocardiograms were recorded digitally on a rewritable magneto-optical disk. Measurements and calculations used are as follows: Left Ventricular End diastolic (EDV) and systolic (ESV) volumes were calculated via the method of discs from direct measurement systolic (LVAs) and diastolic (LVAd) areas. Ejection Fraction (EF) was calculated from systolic and diastolic volumes with the following formula: EF=(EDV−ESV)/EDV×100. […] Heart rate (HR) was calculated by measuring the R-R interval in M-mode and using the formula: HR=60(sec/min)/R-R interval(sec/beat). […]

## COC(=O)[C@@H]1CC2=CC(=O)CC[C@]2(C)[C@@]23O[C@@H]2C[C@@]2(C)[C@@H](CC[C@@]24CCC(=O)O4)[C@H]13 [eplerenone]
2.5 months of treatment
  development of left ventricular dysfunction and heart failure: significantly attenuated
After 2.5 months of treatment, versus normal chow
  myocardial function: significantly improved
